Assay results: ChEMBL document CHEMBL1145850, “Pharmacophoric requirements for the cannabinoid side chain. Probing the cannabinoid receptor subsite at C1'” (J Med Chem, 2003)

What was measured:
Cannabinoid receptor 2 = Cannabinoid receptor 2 (Mus musculus, UniProt P47936); assay: Compound was tested for its binding affinity against mouse spleen Cannabinoid receptor 2 using [3H]CP-55940 as radioligand; assay type: tissue-based
Cannabinoid receptor 1 = Cannabinoid receptor 1 (Rattus norvegicus, UniProt P20272); assay: Binding affinity against rat brain Cannabinoid receptor 1 using [3H]CP-55940
Chain of Cannabinoid receptor 1 (P20272 whole entry): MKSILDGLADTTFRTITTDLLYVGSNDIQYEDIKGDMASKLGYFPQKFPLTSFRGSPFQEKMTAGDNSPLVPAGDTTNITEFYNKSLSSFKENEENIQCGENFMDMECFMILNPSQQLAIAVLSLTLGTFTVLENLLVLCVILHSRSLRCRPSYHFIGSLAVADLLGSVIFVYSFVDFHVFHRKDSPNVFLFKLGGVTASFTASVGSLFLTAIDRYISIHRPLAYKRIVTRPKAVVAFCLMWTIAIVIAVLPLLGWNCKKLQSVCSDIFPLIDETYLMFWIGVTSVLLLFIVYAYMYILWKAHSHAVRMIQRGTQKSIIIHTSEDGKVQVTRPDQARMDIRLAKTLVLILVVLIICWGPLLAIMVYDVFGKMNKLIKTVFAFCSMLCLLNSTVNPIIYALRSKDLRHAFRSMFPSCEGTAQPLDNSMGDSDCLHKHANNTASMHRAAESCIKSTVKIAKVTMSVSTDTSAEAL

Chain of Cannabinoid receptor 2 (P47936 whole entry): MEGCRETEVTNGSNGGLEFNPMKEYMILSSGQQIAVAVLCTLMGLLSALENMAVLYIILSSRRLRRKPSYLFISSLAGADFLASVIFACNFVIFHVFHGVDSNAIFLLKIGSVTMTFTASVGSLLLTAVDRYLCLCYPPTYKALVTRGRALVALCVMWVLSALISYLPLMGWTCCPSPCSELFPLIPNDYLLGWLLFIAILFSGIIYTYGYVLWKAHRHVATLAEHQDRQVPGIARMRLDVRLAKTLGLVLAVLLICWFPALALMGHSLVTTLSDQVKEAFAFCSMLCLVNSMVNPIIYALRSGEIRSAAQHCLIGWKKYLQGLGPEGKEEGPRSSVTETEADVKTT

For `CCCCCCC1(c2cc(O)c3c(c2)OC(C)(C)[C@@H]2CC=C(C)C[C@@H]32)OCCO1`, the Ki (Cannabinoid receptor 2) was 0.22 nM and the Ki (Cannabinoid receptor 1) was 0.52 nM.
Compound `CCCCCCC1(c2cc(O)c3c(c2)OC(C)(C)[C@@H]2CC=C(C)C[C@@H]32)SCCCS1` has a Ki (Cannabinoid receptor 2) of 3.6 nM and a Ki (Cannabinoid receptor 1) of 1.8 nM.
Work on `CCCCCCC1(c2cc(O)c3c(c2)OC(C)(C)[C@@H]2CC=C(C)C[C@@H]32)CCCC1` yielded a Ki (Cannabinoid receptor 2) of 1.92 nM and a Ki (Cannabinoid receptor 1) of 0.45 nM.
`CC1=CC[C@@H]2[C@@H](C1)c1c(O)cc(C3SCCS3)cc1OC2(C)C` was tested, and the Ki (Cannabinoid receptor 2) was 103 nM and the Ki (Cannabinoid receptor 1) was 168 nM.
Work on `CCCCCCC1(c2cc(O)c3c(c2)OC(C)(C)[C@@H]2CC=C(C)C[C@@H]32)Sc2ccccc2S1` yielded a Ki (Cannabinoid receptor 2) of 257 nM and a Ki (Cannabinoid receptor 1) of 56.9 nM.
`CCCCCCC1(c2cc(O)c3c(c2)OC(C)(C)[C@@H]2CC=C(C)C[C@@H]32)SC(C)C(C)S1` (stereo partly drawn) was tested, and the Ki (Cannabinoid receptor 2) was 19.7 nM and the Ki (Cannabinoid receptor 1) was 32.3 nM.
Work on `CCCCCCCc1cc(O)c2c(c1)OC(C)(C)[C@@H]1CC=C(C)C[C@@H]21` yielded a Ki (Cannabinoid receptor 1) of 22 nM.
